Experiment: Solubility test of the ester compound in test solvents
Assay type: physicochemical
Description: The solubility tests were performed with the diisopropyl ester of N,N′-bis(benzyl)ethylenediamine-N,N′-diacetic acid.
The test solvent was poured into a beaker, an amount of the ester compound was added with magnetic stirring and the mixture was left to stand for between 1 hour and 24 hours. The mixture was then heated to 50° C. and then cooled to room temperature (25° C.) over 24 hours. The system was then observed to see if the amount of the ester compound introduced recrystallized or remained dissolved.
The amount of ester compound that can be dissolved in the test solvent was determined in this manner. The maximum value corresponds to the amount at and above which the ester compound stops dissolving in the evaluated solvent.

SMILES: CC(C)OC(=O)CN(CCN(CC(=O)OC(C)C)Cc1ccccc1)Cc1ccccc1 [diisopropyl ester of N,N′-bis(benzyl)ethylenediamine-N,N′-diacetic acid]
- Weight % of dissolved ester compound (solvent: 2-Ethylhexyl salicylate, 25° C.): 10 Weight %
- Weight % of dissolved ester compound (solvent: 2-Octyldodecanol, 25° C.): 10 Weight %
- Weight % of dissolved ester compound (solvent: Apricot oil, 25° C.): 12 Weight %
- Weight % of dissolved ester compound (solvent: Butylene glycol, 25° C.): 1 Weight %
- Weight % of dissolved ester compound (solvent: Cyclohexasiloxane, 25° C.): 4.7 Weight %
- Weight % of dissolved ester compound (solvent: Cyclopentasiloxane, 25° C.): 4.5 Weight %
- Weight % of dissolved ester compound (solvent: Dimethyl isosorbide, 25° C.): 38 Weight %
- Weight % of dissolved ester compound (solvent: Dipropylene glycol, 25° C.): 10.7 Weight %
- Weight % of dissolved ester compound (solvent: Ethanol, 25° C.): 8 Weight %
- Weight % of dissolved ester compound (solvent: Glycerol, 25° C.): 1 Weight %
- Weight % of dissolved ester compound (solvent: Hexylene glycol, 25° C.): 11.5 Weight %
- Weight % of dissolved ester compound (solvent: Hydrogenated isoparaffin (Parleam from NOF), 25° C.): 9 Weight %
- Weight % of dissolved ester compound (solvent: Isononyl isononanoate, 25° C.): 16 Weight %
- Weight % of dissolved ester compound (solvent: Isopropyl N-lauroylsarcosinate (Eldew SL-205 from Ajinomoto), 25° C.): 18 Weight %
- Weight % of dissolved ester compound (solvent: Isopropyl myristate, 25° C.): 11.5 Weight %
- Weight % of dissolved ester compound (solvent: Isopropyl palmitate, 25° C.): 9 Weight %
- Weight % of dissolved ester compound (solvent: Phenyl trimethicone (Dow Corning 556), 25° C.): 12 Weight %
- Weight % of dissolved ester compound (solvent: Propylene glycol, 25° C.): 1 Weight %
- Weight % of dissolved ester compound (solvent: Squalane, 25° C.): 9 Weight %
- Weight % of dissolved ester compound (solvent: Water, heated to 50° C., cooled to room temperature (25° C.) over 24 hours): Insoluble

Reference: patent publication US20100254922A1, “COSMETIC AND/OR DERMATOLOGICAL COMPOSITION BASED ON N,N'-[…] ACID ESTER(S)” (L'OREAL, priority 2008, published 2010)
